{"source": "patent US9822373B2", "about": "“Mutant cells for protein secretion and lignocellulose degradation” (The Regents of the University of California, priority 2011, dated 2017)", "key": {"[1]": {"system": "cellobiohydrolase I (cbh-1, NCU07340)", "experiment": "Quantitative RT-PCR of cbh-1 expression after 4 h induction with a carbon source", "type": "cell-based, Neurospora crassa", "method": "(§1) Strains were inoculated at an OD595 equal to 0.05 in 50 ml Vogel's salts with 2% (wt/vol) sucrose in a 250 ml Erlenmeyer flask and grown under constant light at 200 rpm for 16 hours. The biomass was then spun at 4000 rpm for 10 minutes and washed in Vogel's twice to remove any excess sucrose. The biomass was then added to a new 50 ml culture with 2% (wt/vol) sucrose, cellobiose (Sigma) or Avicel® PH 101 (Avicel®). Cultures were induced for 4 hours under constant light at 200 rpm. The culture biomass was then harvested by filtration over a Whatman glass microfiber filter (GF/F) on a Buchner funnel and washed with 50 ml Vogel's, biomass was flash frozen in liquid Nitrogen and stored at −80° C.\n(§2) Total RNA from frozen samples was isolated using Zirconia/Silica beads (0.2 g, 0.5 mm diameter; Biospec) and a Mini-Beadbeater-96 (Biospec) with 1 mL TRIzol reagent (Invitrogen) according to manufacturer's instructions. Total RNA was further purified by digestion with TURBO DNA-free (Ambion) and an RNeasy kit (Qiagen). RNA integrity was checked by Nanodrop and agarose gel electrophoresis.\n(§3) Quantitative RT-PCR was performed using the EXPRESS One-Step SYBR GreenER Kit (Invitrogen) and the StepOnePlus Real-Time PCR System (Applied Biosystems). Reactions were performed in triplicate with a total reaction volume of 10 ul including 300 nM each forward and reverse primers and 75 ng template RNA. Data Analysis was performed by the StepOne Software (Applied Biosystems) using Relative Quantitation/Comparative CT (ΔΔCT). Data was normalized to the endogenous control actin with expression on sucrose as the reference sample. Error bars indicate a 95% confidence interval. The RT-PCR primers were used as described in (Tian et al., 2009).\nConidia from strains were inoculated at an OD595 equal to 0.05 in 50 ml Vogel's salts (45) with 2% w/v sucrose in a 250 ml Erlenmeyer flask and grown under constant light at 200 rpm for 16 hours. Biomass was then spun at 4200 rpm for 10 minutes and washed in Vogel's salts twice to remove any excess sucrose. Biomass was then added to a new flask containing 50 ml Vogel's salts supplemented with 1% w/v sucrose, 0.2% w/v cellobiose (Sigma) or 1% w/v Avicel® PH 101 (Sigma). Cultures were induced for 4 hrs under constant light at 200 rpm. The culture biomass was then harvested by filtration over a Whatman glass microfiber filter (GF/F) on a Buchner funnel and washed with 50 ml Vogel's salts. […] Three independent biological duplicates (flasks) were evaluated for each time point. […]\n(§4) Quantitative RT-PCR was performed using the EXPRESS One-Step SYBR GreenER Kit (Invitrogen) and the StepOnePlus Real-Time PCR System (Applied Biosystems). […] Data Analysis was performed by the StepOne Software (Applied Biosystems) using the Relative Quantitation/Comparative CT (ΔΔCT) setting. […]"}, "cbh-2 / gh6-2 (NCU09680)": {"system": "cbh-2 / gh6-2 (NCU09680)", "experiment": "Quantitative RT-PCR of cbh-2/gh6-2 expression after 4 h induction with a carbon source", "type": "cell-based, Neurospora crassa", "method": "as §1, §2\nas §3, with “Data was normalized to the endogenous control actin with expression on sucrose as the reference sample. Error bars indicate a 95% confidence interval. The RT-PCR primers were used as described in (Tian et al., 2009).” left out\nConidia from strains were inoculated at an OD595 equal to 0.05 in 50 ml Vogel's salts (45) with 2% w/v sucrose in a 250 ml Erlenmeyer flask and grown under constant light at 200 rpm for 16 hours. […] Three independent biological duplicates (flasks) were evaluated for each time point. […]\nas §4"}, "[2]": {"system": "cellulase genes (cbh-1, gh5-1, gh6-2)", "experiment": "Quantitative RT-PCR, cellulase gene expression stated for the genes together", "type": "cell-based, Neurospora crassa", "method": "Conidia from strains were inoculated at an OD595 equal to 0.05 in 50 ml Vogel's salts (45) with 2% w/v sucrose in a 250 ml Erlenmeyer flask and grown under constant light at 200 rpm for 16 hours. Biomass was then spun at 4200 rpm for 10 minutes and washed in Vogel's salts twice to remove any excess sucrose. […] Cultures were induced for 4 hrs under constant light at 200 rpm. The culture biomass was then harvested by filtration over a Whatman glass microfiber filter (GF/F) on a Buchner funnel and washed with 50 ml Vogel's salts. The biomass was flash frozen in liquid nitrogen and stored at −80° C. Three independent biological duplicates (flasks) were evaluated for each time point.\nTotal RNA from frozen samples was isolated using Zirconia/Silica beads (0.5 mm diameter; Biospec) and a Mini-Beadbeater-96 (Biospec) with 1 mL TRIzol reagent (Invitrogen) according to the manufacturer's instructions. The total RNA was further purified by digestion with TURBO DNA-free (Ambion) and an RNeasy kit (Qiagen). RNA concentration and integrity was checked by Nanodrop and agarose gel electrophoresis.\nQuantitative RT-PCR was performed using the EXPRESS One-Step SYBR GreenER Kit (Invitrogen) and the StepOnePlus Real-Time PCR System (Applied Biosystems). Reactions were performed in triplicate with a total reaction volume of 10 μl including 300 nM each forward and reverse primers and 75 ng template RNA. Data Analysis was performed by the StepOne Software (Applied Biosystems) using the Relative Quantitation/Comparative CT (ΔΔCT) setting. Data was normalized to the endogenous control actin with expression on sucrose as the reference sample."}, "Neurospora crassa": {"system": "Neurospora crassa", "experiment": "Bioreactor cellulase production, total secreted protein in supernatant", "type": "cell-based", "conditions": "pre-grown 24 hours on 1% sucrose, induction with 0.2%", "method": "Cellulase production was carried out in a 3.7 L bioreactor (BioEngineering AG) at an operating volume of 1 L. The bioreactor was equipped with one 48 mm Rushton impeller and four equally spaced baffles to provide adequate mixing. Impeller speed was controlled at 200 rpm for 8 hours to allow spore germination followed by 500 rpm for the remainder of the experiment. The temperature was maintained at 25° C., and medium pH was controlled at 5.5 using 40% phosphoric acid and 1:5 diluted ammonium hydroxide. The dissolved oxygen was maintained at a level greater than 20% of the saturation value of the medium by varying the aeration rate between 0.5 and 3 VVM in response to the dissolved oxygen tension. Minimal growth medium with 1% w/v sucrose as the sole carbon source (unless otherwise noted) was inoculated with 10^9 conidia. After 24 hours initial growth, cellulase production was induced with either cellobiose or Avicel® added to a final concentration of 0.2% w/v. Supernatant samples were collected at timepoint 0, 12 hours before induction, at induction, as well as 4, 8, 12, 24 and 36 hours post induction. Samples were spun at 4000 rpm for 5 minutes to pellet biomass and the supernatant was filtered through a 0.2 μm PES filter before being stored at −20° C. until all samples were collected.\nTotal secreted proteins were measured using the Bio-Rad Protein Assay kit (Bio-Rad) and visualized by running 15 μl of unconcentrated supernatant on a Criterion 4-14% Tris-HCL polyacrylamide gel and stained with Thermo Scientific GelCode Blue Stain Reagent."}, "[3]": {"conditions": "WT strain, 2% carbon source, 4 h induction"}, "[4]": {"conditions": "triple β-glucosidase mutant, 2% carbon source, 4 h induction"}, "[5]": {"conditions": "Δcre-1 strain, shifted from sucrose to 0.2% cellobiose for 4 hrs"}}, "data": [{"smiles": "O=C[C@H](O)[C@@H](O)[C@H](O[C@@H]1O[C@H](CO)[C@@H](O)[C@H](O)[C@H]1O)[C@H](O)CO", "note": "[cellobiose]", "values": [{"measurement": "induction for cbh-1 compared to relative expression on sucrose", "setting": "[1]; [3]", "value": 20, "unit": "fold"}, {"measurement": "cbh-1 increase in relative expression over expression on sucrose", "setting": "[1]; [4]", "value": "6,500 fold"}, {"measurement": "increase in transcription of cbh-1 above expression on sucrose in the same strain", "setting": "[1]; Δcre-1 strain, 4 h induction (Example 1)", "value": 600, "unit": "fold"}, {"measurement": "induction of cbh-1", "setting": "[1]; [5]", "value": "3,000 fold"}, {"measurement": "cbh-2 relative expression compared to sucrose", "setting": "cbh-2 / gh6-2 (NCU09680); [3]", "value": "no change"}, {"measurement": "cbh-2 increase in relative expression over expression on sucrose", "setting": "cbh-2 / gh6-2 (NCU09680); [4]", "value": "2,100 fold"}, {"measurement": "induction of gh6-2", "setting": "cbh-2 / gh6-2 (NCU09680); [5]", "value": 85, "unit": "fold"}, {"measurement": "induction of cbh-1, gh6-2, or gh5-1 expression", "setting": "[2]; individual β-glucosidase deletion strains (Δgh1-1, Δgh3-3 or Δgh3-4), 4 hr induction, 0.2%", "value": "did not show a significant induction"}, {"measurement": "induction of lignocellulolytic genes", "setting": "[2]; wild-type N. crassa (WT) grown on the substance as sole carbon source", "value": "not induced"}, {"measurement": "cellulase gene induction", "setting": "[2]; Δgh1-1Δgh3-3 double mutant, 4 hr induction, 0.2%", "value": "showed some cellulase gene induction"}, {"measurement": "protein in the supernatant", "setting": "Neurospora crassa; WT", "value": 0.05, "unit": "mg/mL"}, {"measurement": "protein in the supernatant", "setting": "Neurospora crassa; Δ3βG", "value": 0.12, "unit": "mg/mL"}, {"measurement": "protein in the supernatant", "setting": "Neurospora crassa; Δ3βGΔcre", "value": 0.24, "unit": "mg/mL"}]}]}
